The test system of test [1] is S. enteritidis serotype Dublin. Description: Example 3: colony color, coloration intensity and growth on Columbia agar with esterase substrates. It counts as cell-based. Conditions: X—C8 versus Magenta-C8. The protocol: (§1) The media thus constituted were distributed into Petri dishes.
(§2) Various salmonella serotypes were inoculated, using a 10 μl calibrated loop, onto each medium, using calibrated suspensions of 0.5 McFarland. All the cultures were incubated for 24 h at 37° C.
(§3) The growth and coloration results obtained at 24 h of incubation are given in table 3, in which G signifies growth, C signifies color, I signifies colorless, In signifies coloration intensity, the sign ++ signifies very good growth, the sign + signifies good growth of the strain, the sign +/− signifies moderate growth of the strain and the sign − signifies lack of growth of the strain. 1 corresponds to a weak coloration intensity, 2 corresponds to moderate and 3 corresponds to strong.

Test [2] deals with the other serotypes (salmonella). Description: Example 3: esterase substrate preference, conclusion from table 4. It is filed as cell-based. Particulars: coloration intensities being stronger for this substrate. The protocol:
as §1, §2, §3
As a result of this, a medium containing these two substrates of the same enzymatic activity makes it possible to obtain colored colonies for the various salmonella serotypes, and to separate the Dublin serotype from the other salmonella serotypes and from bacteria not expressing esterase.

Regarding `CCCCCCCC(=O)Oc1c[nH]c2ccc(Br)c(Cl)c12` [X—C8, 5-Bromo-4-Chloro-3-Indoxyl Octanoate], the “specificity of hydrolysis by esterase activity” value in test [1] is on record as “hydrolyzes X—C8 more specifically than Magenta-C8”.
Consider `CCCCCCCC(=O)Oc1c[nH]c2cc(Cl)c(Br)cc12` [Magenta-C8, 5-Bromo-6-Chloro-3-Indoxyl Octanoate], for which, in test [2], the “preferential hydrolysis by esterase activity” value is on record as “preferentially hydrolyze Magenta-C8”.

(Values after US8420345B2, “Method for identifying at least two groups of microorganisms” (Biomerieux, priority 2006, dated 2013).)
